# Starred links: 1 amine or outer side, 2 acyl side, 3 side chain; linkers in the order of their positions; H or OH if unused. Positions of bridges follow the written chain, without caps; N, C: chain ends. Non-standard residues stand in square brackets, D forms with d. Residues, ends and D or L forms follow the SMILES beside them. *: point of attachment. hPhe(3-Cl-4-CF3) = N[C@@H](CCc1ccc(C(F)(F)F)c(Cl)c1)C(=O)O; X38 = CN([C@@H](Cc1cccc(OC(F)(F)F)c1)C(=O)[*:2])[*:1]; hPhe(4-CF3) = N[C@@H](CCc1ccc(C(F)(F)F)cc1)C(=O)O; NEtAsp = CCN([C@@H](CC(=O)[*:3])C(=O)[*:2])[*:1]; 3Oxa8azabicyclo(3.2.1)octane = C1CC2COCC1N2*; NMePhe(2-Cl) = CN[C@@H](Cc1ccccc1Cl)C(=O)O; NMedβ3hAla = C[C@H](CC(=O)[*:2])N(C)[*:1]; NMeGly(cPent) = CN[C@H](C(=O)O)C1CCCC1; NMeGly(cBu) = CN[C@H](C(=O)O)C1CCC1; NMeCha = CN[C@@H](CC1CCCCC1)C(=O)O; NMeChg = CN[C@H](C(=O)O)C1CCCCC1; NMeD = CN[C@@H](CC(=O)O)C(=O)O; NMeL = CN[C@@H](CC(C)C)C(=O)O; NMeV = CN[C@H](C(=O)O)C(C)C; d(β3hA) = C[C@@H](N)CC(=O)O; NPhGly = O=C(O)CNc1ccccc1; NMeA = CN[C@@H](C)C(=O)O; NMeAib = CNC(C)(C)C(=O)O; Piperidide = C1CCN(*)CC1; Ac5c = NC1(C(=O)O)CCCC1; Aze = O=C(O)[C@@H]1CCN1; Ac4c = NC1(C(=O)O)CCC1; Sar = CNCC(=O)O
# What was measured:
# [1] = target: T1, Kras and SOS1 (biotin-tagged human Kras loaded with GDP, His-tagged human SOS1) (Homo sapiens, UniProt P01116, G12D); test: Protein-protein interaction inhibition between Kras and SOS1 (KrasGl2D-SOS PPI) using AlphaScreen; format: binding; details: AlphaScreen; biotin-tagged human Kras loaded with GDP, His-tagged human SOS1; read-out: KRAS G12D-SOS PPI IC50
# T1 construct: made in house; host or cells: E. coli (stated for Kras only)
# Summary of the method: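 Read-out is acceptor-bead light at 520-620 nm, arising when 680 nm-irradiated nickel donor beads pass singlet oxygen to streptavidin acceptors. The bead pair links His-tagged SOS1 with biotin-tagged, GDP-bound Kras from E. coli.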
# [2] = system: Human pancreatic cancer cell line AsPC-1; test: Measurement of AsPC-1 cell growth inhibition (AsPC-1 CGI); format: cell-based; details: 96 h
# Summary of the method: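 AsPC-1 cells in 15% FBS RPMI-1640 were exposed to test compound for 96 hours at 37° C, with CellTiter-Glo as endpoint.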
# T1 sequence (P01116 1-188 isoform P01116-2 G12D): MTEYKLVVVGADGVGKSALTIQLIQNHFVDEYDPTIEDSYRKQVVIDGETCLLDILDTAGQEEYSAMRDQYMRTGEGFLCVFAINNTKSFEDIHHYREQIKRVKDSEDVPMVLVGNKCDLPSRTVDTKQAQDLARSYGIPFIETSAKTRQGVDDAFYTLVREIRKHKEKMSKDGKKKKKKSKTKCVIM
smiles,measurement,setting,value
CC[C@H](C)[C@@H]1NC(=O)[C@H](C)N(C)C(=O)C[C@@H](C(=O)N2CCCCC2)N(CC)C(=O)[C@H](C2CCCC2)N(C)C(=O)C2(CCCC2)NC(=O)[C@@H]2CCCN2C(=O)[C@H](CCc2ccc(C(F)(F)F)c(Cl)c2)NC(=O)CN(C)C(=O)[C@H](CC2CCCCC2)N(C)C(=O)CN(C)C(=O)CN(C)C1=O [Compound 532] ([NMeA]I[Sar][Sar][NMeCha][Sar][hPhe(3-Cl-4-CF3)]P[Ac5c][NMeGly(cPent)][NEtAsp]-Piperidide; lactam N-11),IC50,[1],0.00048 µM
same,IC50,[2],0.05 to 0.1 µM
CC[C@H](C)[C@@H]1NC(=O)[C@H](CC(C)C)N(C)C(=O)C[C@@H](C(=O)N2CCCCC2)N(C)C(=O)[C@H](C2CCCCC2)N(C)C(=O)C2(CCC2)NC(=O)[C@@H]2CCCN2C(=O)[C@H](CCc2ccc(C(F)(F)F)c(Cl)c2)NC(=O)CN(C)C(=O)[C@H](CC2CCCCC2)N(C)C(=O)CN(C)C(=O)CN(C)C1=O [Compound 1821] ([NMeL]I[Sar][Sar][NMeCha][Sar][hPhe(3-Cl-4-CF3)]P[Ac4c][NMeChg][NMeD]-Piperidide; lactam N-11),IC50,[1],0.00099 µM
same,IC50,[2],0.02 to 0.05 µM
CC[C@H](C)[C@@H]1NC(=O)[C@H](CC(C)C)N(C)C(=O)C[C@@H](C(=O)N(C)C)N(C)C(=O)[C@H](C2CCCCC2)N(C)C(=O)C2(CCCC2)NC(=O)[C@@H]2CCCN2C(=O)[C@H](CCc2ccc(C(F)(F)F)c(Cl)c2)NC(=O)CN(C)C(=O)[C@H](CC2CCCCC2)N(C)C(=O)CN(C)C(=O)CN(C)C1=O [Compound 1729] ([NMeL]I[Sar][Sar][NMeCha][Sar][hPhe(3-Cl-4-CF3)]P[Ac5c][NMeChg][NMeD]-NMe2; lactam N-11),IC50,[1],0.00044 µM
same,IC50,[2],0.02 to 0.05 µM
CC(C)C[C@@H]1NC(=O)[C@H](CC(C)C)N(C)C(=O)C[C@@H](C(=O)N2CCCCC2)N(C)C(=O)[C@H](C2CCCCC2)N(C)C(=O)C2(CCCC2)NC(=O)[C@@H]2CCCN2C(=O)[C@H](CCc2ccc(C(F)(F)F)c(Cl)c2)NC(=O)CN(C)C(=O)[C@H](CC2CCCCC2)N(C)C(=O)CN(C)C(=O)CN(C)C1=O [Compound 1650] ([NMeL]L[Sar][Sar][NMeCha][Sar][hPhe(3-Cl-4-CF3)]P[Ac5c][NMeChg][NMeD]-Piperidide; lactam N-11),IC50,[1],0.0026 µM
same,IC50,[2],0.1 to 0.5 µM
CC[C@H](C)[C@@H]1NC(=O)[C@H](CC(C)C)N(C)C(=O)C[C@@H](C(=O)N2C3CCC2COC3)N(C)C(=O)[C@H](C2CCCCC2)N(C)C(=O)C2(CCCC2)NC(=O)[C@@H]2CCCN2C(=O)[C@H](CCc2ccc(C(F)(F)F)cc2)NC(=O)CN(C)C(=O)[C@H](CC2CCCCC2)N(C)C(=O)CN(C)C(=O)CN(C)C1=O [Compound 1940] ([NMeL]I[Sar][Sar][NMeCha][Sar][hPhe(4-CF3)]P[Ac5c][NMeChg][NMeD]-{3Oxa8azabicyclo(3.2.1)octane}; lactam N-11),IC50,[1],0.0016 µM
same,IC50,[2],0.1 to 0.5 µM
CC[C@H](C)[C@@H]1NC(=O)[C@H](CC(C)C)N(C)C(=O)C[C@@H](C)NC(=O)[C@H](C(C)C)N(C)C(=O)C2(CCC2)NC(=O)[C@@H]2CCCN2C(=O)[C@H](CCc2ccc(C(F)(F)F)c(Cl)c2)NC(=O)CN(C)C(=O)[C@H](CC2CCCCC2)N(C)C(=O)CN(C)C(=O)CN(C)C1=O [Compound 520] (cyclo([Ac4c][NMeV][d(β3hA)][NMeL]I[Sar][Sar][NMeCha][Sar][hPhe(3-Cl-4-CF3)]P)),IC50,[1],0.017 µM
same,IC50,[2],0.1 to 0.5 µM
CC[C@H](C)[C@@H]1NC(=O)[C@H](C)N(C)C(=O)C[C@@H](C(=O)N2CCCCC2)N(C)C(=O)[C@H](C2CCC2)N(C)C(=O)C(C)(C)N(C)C(=O)CN(c2ccccc2)C(=O)[C@H](CCc2ccc(C(F)(F)F)c(Cl)c2)NC(=O)CN(C)C(=O)[C@H](C2CCC2)N(C)C(=O)[C@@H]2CCN2C(=O)[C@H](C)N(C)C1=O [Compound 2144] ([NMeA]I[NMeA][Aze][NMeGly(cBu)][Sar][hPhe(3-Cl-4-CF3)][NPhGly][NMeAib][NMeGly(cBu)][NMeD]-Piperidide; lactam N-11),IC50,[1],0.0069 µM
same,IC50,[2],> 0.5 µM
CC[C@H](C)[C@@H]1NC(=O)[C@H](CC(C)C)N(C)C(=O)C[C@@H](C(=O)N2CCCCC2)N(C)C(=O)[C@H](C(C)C)N(C)C(=O)C2(CCCC2)NC(=O)[C@@H]2CCCN2C(=O)[C@H](CCc2ccc(C(F)(F)F)c(Cl)c2)NC(=O)CN(C)C(=O)[C@H](Cc2ccccc2Cl)N(C)C(=O)CN(C)C(=O)CN(C)C1=O [Compound 1636] ([NMeL]I[Sar][Sar][NMePhe(2-Cl)][Sar][hPhe(3-Cl-4-CF3)]P[Ac5c][NMeV][NMeD]-Piperidide; lactam N-11),IC50,[1],0.011 µM
same,IC50,[2],0.1 to 0.5 µM
CC[C@H](C)[C@@H]1NC(=O)[C@H](CC(C)C)N(C)C(=O)C[C@@H](C)N(C)C(=O)[C@H](C(C)C)N(C)C(=O)C2(CCCC2)NC(=O)[C@@H]2CCCN2C(=O)[C@H](CCc2ccc(C(F)(F)F)c(Cl)c2)NC(=O)CN(C)C(=O)[C@H](Cc2cccc(OC(F)(F)F)c2)N(C)C(=O)CN(C)C(=O)CN(C)C1=O [Compound 1637] (cyclo([Ac5c][NMeV][NMedβ3hAla][NMeL]I[Sar][Sar][X38][Sar][hPhe(3-Cl-4-CF3)]P)),IC50,[1],0.017 µM
same,IC50,[2],0.05 to 0.1 µM
